Key:
[1] = system: brain palmitoylated proteins; experiment: ABE (Acyl-Biotin-Exchange) assay on brain lysate; type: in vivo, mice
Method: In FIG. 4D, the graphic representation of the experiment set up to test the efficacy of the molecule to increase the level of palmitoylation in the brain 30 minutes after injection can be visualized. […] Brains were mechanically lysed in ice-cold buffer (1% IGEPAL CA-630; 50 mM Tris-HCl pH 7.5, 150 mM NaCl, 10% glycerol) containing 1:100 protease inhibitor cocktail (Sigma Aldrich P8340), 1 mM PMSF, 1:200 phosphatase inhibitor (Sigma Aldrich P5726), and 50 mM NEM (Sigma Aldrich E3876) to block free cystein. Brain lysates were rotated at 4° C. for 30 minutes before insoluble material was removed by centrifugation at 15.000 rpm for 10 minutes. Lysates were precleared by incubation with Dynabeads M-280 Streptavidin (Invitrogen 112.05D) for 30 minutes at 4° C. on the wheel. Proteins from precleared samples were then precipitated using chloroform-methanol assay. Each pellet was divided and resuspended in +HAM (2:3 of the pellet) (lysis buffer containing 1 mM HAM (Sigma 46780-4)) or −HAM (1:3 of the pellet) during 1 hour at room temperature on the wheel. Proteins were precipitated with chloroform-methanol method and the pellets were resuspended in Biotin-BMCC buffer (lysis buffer with 5 μM EZ-Link™ Biotin-BMCC (Thermo Fisher 21900)) for 1 hour at room temperature on the wheel. […]

Hdh^CAG/+ mice = experiment: Post-mortem synapse density (adjacent PSD95 and Vglut-1 spots) after 28 days of treatment; type: in vivo, mouse
Text: We note that there is a significant reduction in this number of adjacent spots in untreated Hdh^CAG/+ mice.

[2] = system: cortical neurons from WT and Hdh^CAG/+ mice; experiment: BDNF-mCherry axonal transport in corticostriatal network on microfluidic device; type: cell-based, mouse
Method: Referring to FIG. 3A, the inventors have reproduced the corticostriatal network in vitro on a microfluidic device consisting of two neuronal chambers that are connected via microchannels. Experiments are performed over a period of time ranging from 2 to 12 days in vitro (Days in vitro), i.e. DIV2 to DIV12, and a fixation/acquisition at DIV12.
For striatal StHdh cells, acute treatment was performed at 10 μM for 1 hour before and during the acquisition time. For neurons within the microchambers, treatments were started at DIV2 until DIV12 every day at 1 μM in each compartment of the microfluidic device.
The inventors then investigated whether ML-348 is able to restore dysfunctions of the corticostriatal network in Huntington's disease. Indeed, corticostriatal circuit is particularly altered in Huntington's disease, which manifests itself by a dysfunction and a degeneration of both the striatal neurons and their corticostriatal afferences. They developed a microfluidic-based approach that enables the reconstruction of a time- and space-controlled neuronal network compatible with fast spinning confocal videomicroscopy. This system uses a silicon polymer-based microfluidic device composed of two fluidically-isolated neuronal chambers that are connected via a set of thin microchannels through which neurites can grow and contact each other in an intermediate synaptic compartment. Using primary neuron cultures, they reconstituted a corticostriatal network in which cortical neurons project to striatal target neurons through oriented axodendritic connections (FIG. 3A). These devices are compatible with drug treatment and therefore can be used to test pharmacological agents in vitro on this functional circuit.
Cortical neurons from WT and Hdh^CAG/+ mice were infected with BDNF-mCherry lentivirus and acquisitions were performed at Day 12 in the distal part of the long microchannels to analyze axonal transport of BDNF (FIG. 3B). As expected, defects in axonal transport in HD (Huntington's disease) neurons were identified for both the anterograde and retrograde transport velocities, and also in the number of vesicles travelling along the microtubules (FIG. 3C-3E). These effects lead to a reduction of the linear net flux with no impact one the directionality of the vesicles (FIGS. 3F and 3G).

[3] = Hdh^CAG/+ network, 1 μM daily DIV2 to DIV12

Question: What does the source list for O=C(CN1CCN(C(=O)c2ccco2)CC1)Nc1cc(C(F)(F)F)ccc1Cl [ML-348]?
Answer: palmitoylation in brain (ABE, +HAM vs −HAM) ([1]; HdH^CAG/+ mice, 28 days of treatment, 0.3 mg/kg/day subcutaneous osmotic pump): increase palmitoylation; level of palmitoylation in brain lysates ([1]; mice injected with 0.3 mg/kg, 30 minutes after injection): increased; synaptic density, number of PSD95 and Vglut-1 adjacent dots per 100 μm^2 (Hdh^CAG/+ mice): restores synaptic density to a level approximately equal to that of untreated wild-type mice; anterograde and retrograde transport velocities of BDNF-mCherry [2, 3]: restored to values approximately equal to those of the wild type; linear net flow of BDNF-mCherry vesicles [2, 3]: restored to values approximately equal to those of the wild type; number of anterograde and retrograde vesicles moving over 100 μm for 30 seconds [2, 3]: restored to values approximately equal to those of the wild type; effect on BDNF trafficking in WT neurons ([2]; WT neurons, 1 μM daily): inhibitory effect on BDNF trafficking

— US12551479B2, “Acyl-protein thioesterase inhibitor for the treatment and/or prevention of Huntington's disease” (UNIVERSITÉ GRENOBLE ALPES, priority 2019, dated 2026)
